Results taken from patent US9102648B1, “Bioavailable diacylhydrazine ligands for modulating the expression of exogenous genes via an ecdysone receptor complex” (Intrexon Corporation, priority 2003, dated 2015).
Read-outs that look alike come from different tables or passages of the source.

Assays:
[1] = target: GAL4 DBD (1-147)-CfEcR(DEF)/VP16AD-βRXREF-LmUSPEF (Choristoneura fumiferana, UniProt O77240); test: cell-based; conditions: for Fold Induction, 27-63 Assay, 3.3 uM: 3.3 uM ligand; for Fold Induction, 27-63 Assay, 3.3 uM / Fold Induction, 27-63 Assay, 33 uM: RLU ligand treated / RLU DMSO treated cells; for Fold Induction, 27-63 Assay, 33 uM: 33 uM ligand; for 27-63 assay Rel Max FI: maximum fold induction at any concentration relative to that of GS-E ligand, CHO 27-63 cells; for fold induction at 3.3 µM: read-out: Fold Induction, 27-63 Assay, 3.3 uM; for fold induction at 33 µM: read-out: Fold Induction, 27-63 Assay, 33 uM
[2] = target: GAL4 DBD-CfEcR(DEF)/VP16AD-MmRXRE (Choristoneura fumiferana, UniProt O77240); test: 13B3 Assay (CHO stable cell line, luciferase reporter); conditions: for Fold Induction, 13B3 Assay, 3.3 uM: 3.3 uM ligand; for Fold Induction, 13B3 Assay, 3.3 uM / Fold Induction, 13B3 Assay, 33 uM: RLU ligand treated / RLU DMSO treated cells; for Fold Induction, 13B3 Assay, 33 uM: 33 uM ligand; for 13B3 assay Rel Max FI: maximum fold induction at any concentration relative to that of GS-E ligand, CHO 13B3 cells; for fold induction at 33 µM: read-out: Fold Induction, 13B3 Assay, 33 uM; for fold induction at 3.3 µM: read-out: Fold Induction, 13B3 Assay, 3.3 uM
Summary of the method: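 CHO 13B3 clone stably expressing GAL4 DBD–CfEcR(DEF) and VP16AD–MmRXR(DE) with GAL4 RE–luciferase reporter; cells plated 24 h at 37 °C, then treated with ligands (DMSO stocks diluted 300-fold), 8 concentrations 33–0.01 μM.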

[3] = read-out: 27-63 assay EC50, CHO 27-63 stable cell line, luciferase reporter, average of two wells
[4] = read-out: 13B3 EC50, CHO 13B3 stable cell line, luciferase reporter, 48 h, average of two wells

Row | SMILES | Fold Induction, 27-63 Assay, 3.3 uM ([1]; average of two wells) | Fold Induction, 27-63 Assay, 33 uM ([1]; average of two wells) | 27-63 assay Rel Max FI [1] | EC50 [1, 3] | Fold Induction, 13B3 Assay, 3.3 uM ([2]; average of two wells) | Fold Induction, 13B3 Assay, 33 uM ([2]; average of two wells) | 13B3 assay Rel Max FI [2] | EC50 [2, 4] | EC50 [1] | fold induction at 3.3 µM [1] | fold induction at 33 µM [1] | EC50 [2] | fold induction at 33 µM [2] | fold induction at 3.3 µM [2]
1 | COc1cccc(C(=O)NN(C(=O)c2cc(C)cc(C)c2)C(C)(C)C)c1N [RG-115378] | 1493 | 1407 | 0.863 | 758 nM | 1778 | 2424 | 0.655 | 1760 nM | – | – | – | – | – | –
2 | CCc1c(OC)cccc1C(=O)NN(C(=O)c1cc(C)cc(C)c1)C(C)(C)C(=O)O [RG-115044, 2-[N-(3,5-Dimethyl-benzoyl)-N′-(2-ethyl-3-methoxy-benzoyl)-hydrazino]-2-methyl-propionic acid] | – | – | 0.00 | – | – | – | 0.87 | – | > 33000 nM | 1 | 2 | > 50000 nM | 1 | –
3 | CCC(N(NC(=O)c1cccc(C)c1C)C(=O)c1cc(C)cc(C)c1)C(C)(C)C (centres unmarked) [RG-103309, 3,5-dimethyl-benzoic acid N′-(2,3-dimethyl-benzoyl)-N-(1-ethyl-2,2-dimethyl-propyl)-hydrazide] | – | – | 0.975 | – | – | – | 1.486 | – | 3020 nM | 2540 | 1200 | 146 nM | 95 | 924
4 | COc1cc(C)cc(C(=O)N(NC(=O)c2cccc(OC)c2C)C(C)(C)C)c1 [RG-100767] | 2097 | 2171 | 1.218 | 334 nM | 4504 | 682 | 0.920 | 1060 nM | – | – | – | – | – | –
5 | CCc1c(OC)cccc1C(=O)NN(C(=O)c1cc(C)cc(C)c1)C(C)(C)C [RG-102240, N-(3-methoxy-2-ethylbenzoyl)-N′-(3,5-dimethylbenzoyl)-N′-tert-butylhydrazine] | – | – | 1 | – | – | – | 1 | – | – | – | – | 500 nM | – | –
6 | CCc1ccc(C(=O)NN(C(=O)c2cc(C)cc(C)c2)C(C)(C)C)cc1 [RG-102125] | – | – | 0.721 | – | – | – | – | – | 190 nM | – | – | 479 nM | – | –
7 | COc1cccc(C(=O)NN(C(=O)c2cc(Cl)c(F)c(Cl)c2)C(C)(C)C)c1C [RG-101382, N-(3-methoxy-2-methylbenzoyl)-N′-(3,5-dichloro-4-fluorobenzoyl)-N′-tert-butylhydrazine] | – | – | 1.188 | – | – | – | 0.915 | – | 306 nM | 2700 | 2570 | 588 nM | 1010 | 13100
8 | Cc1c(C(=O)NN(C(=O)c2cc(F)c(Cl)cc2Cl)C(C)(C)C)ccc2c1CCCO2 [RG-115539] | 1076 | 534 | 0.595 | 1180 nM | 20 | 592 | 0.955 | 5000 nM | – | – | – | – | – | –
9 | Cc1ccc([N+](=O)[O-])c(C(=O)N(NC(=O)c2ccc3c(c2C)CCCO3)C(C)(C)C)c1 [RG-115664] | 1928 | 1768 | 0.635 | 359 nM | 1363 | 333 | 0.497 | 323 nM | – | – | – | – | – | –
10 | CCc1c(C(=O)NN(C(=O)c2ccccc2OC)C(C)(C)C)ccc2c1OCCO2 [RG-100690] | 1136 | 1047 | 0.727 | 200 nM | 1094 | 500 | 0.506 | 268 nM | – | – | – | – | – | –
11 | COc1cccc(C(=O)N(NC(=O)c2ccc3c(c2C)OCCO3)C(C)(C)C)c1 [RG-100360] | 1627 | 1353 | 0.873 | 615 nM | 1111 | 745 | 0.825 | 588 nM | – | – | – | – | – | –
12 | Cc1c(C(=O)NN(C(=O)c2ccc(F)cc2)C(C)(C)C)ccc2c1CCCO2 [RG-115118] | 1063 | 914 | 0.612 | 394 nM | 979 | 769 | 0.530 | 689 nM | – | – | – | – | – | –
13 | Cc1c(C(=O)NN(C(=O)c2cccc(F)c2)C(C)(C)C)ccc2c1CCCO2 [RG-115278] | 1250 | 906 | 0.720 | 885 nM | 1950 | 1050 | 0.823 | 630 nM | – | – | – | – | – | –
14 | COc1cccc(C(=O)NN(C(=O)c2cc(C)cc(C)c2)C(C)(C)C)c1[N+](=O)[O-] [RG-100568] | 615 | 2286 | 1.197 | 4130 nM | 2 | 4122 | 1.035 | 44300 nM | – | – | – | – | – | –
15 | CCc1c(OC)cccc1C(=O)NN(C(=O)c1ccc2c(c1)OCO2)C(C)(C)C [RG-100699] | 398 | 1413 | 0.939 | 3960 nM | – | 2296 | – | – | – | – | – | – | – | –
16 | CCc1c(C(=O)NN(C(=O)c2cc(Cl)nc(Cl)c2)C(C)(C)C)ccc2c1OCCO2 [RG-115297] | 1544 | 946 | 0.986 | 330 nM | 1364 | 304 | 0.737 | 1360 nM | – | – | – | – | – | –
17 | Cc1c(C(=O)NN(C(=O)c2ccc(F)c(F)c2)C(C)(C)C)ccc2c1CCCO2 [RG-115416] | 2412 | 1867 | 0.721 | 637 nM | 3618 | 2737 | 12.104 | 938 nM | – | – | – | – | – | –
18 | Cc1c(C(=O)NN(C(=O)c2cc(F)c(F)cc2F)C(C)(C)C)ccc2c1CCCO2 [RG-115229] | 2829 | 1423 | 0.735 | 1150 nM | 599 | 709 | 0.418 | 2250 nM | – | – | – | – | – | –
19 | CCc1c(C(=O)NN(C(=O)c2ccccc2)C(C)(C)C)ccc2c1OCOC2 [RG-115046] | 18 | 1069 | 0.739 | 5660 nM | – | 1076 | – | – | – | – | – | – | – | –
20 | CCc1c(C(=O)NN(C(=O)c2ccc(Cl)cc2F)C(C)(C)C)ccc2c1OCCO2 [RG-115514] | 1616 | 1427 | 0.720 | 170 nM | 4009 | 515 | 0.550 | 541 nM | – | – | – | – | – | –
21 | CCc1c(OC)cccc1C(=O)NN(C(=O)c1cc(Cl)ccc1[N+](=O)[O-])C(C)(C)C [RG-115257] | 1130 | 1320 | 0.663 | 698 nM | 820 | 354 | 0.742 | 886 nM | – | – | – | – | – | –
22 | CCc1c(OC)cccc1C(=O)NN(C(=O)c1cc(C)cc(C)c1)C(C)(C)C=NNC(=O)C(N)=O [RG-115597, oxamic carbazide of 2-ethyl-3-methoxy-benzoic acid N′-(3,5-dimethyl-benzoyl)-N′-(1,1-dimethyl-2-oxo-ethyl)-hydrazide] | 2 | 2065 | 1.26 | 9830 nM | – | 4667 | – | – | – | – | – | – | – | –
23 | Cc1ccc([N+](=O)[O-])c(C(=O)N(NC(=O)c2ccc3c(c2C)OCCO3)C(C)(C)C)c1 [RG-115384] | 1713 | 1282 | 0.645 | 113 nM | 2753 | 2277 | 0.426 | 320 nM | – | – | – | – | – | –
24 | CCc1c(OC)cccc1C(=O)NN(C(=O)c1cc(C)cc(C)c1)C(C)(C)CO[Si](C)(C)C(C)(C)C [RG-115665, 2-ethyl-3-methoxy-benzoic acid N′-[2-(tert-butyl-dimethyl-silanyloxy)-1,1-dimethyl-ethyl]-N′-(3,5-dimethyl-benzoyl)-hydrazide] | – | – | 0.01 | – | – | – | 0 | – | 5490 nM | 2 | – | > 50000 nM | – | 1
